For 18 compounds, logP results are on record in the SangsterLogP compilation.

Assay in one series: not given
Broadly, the logP is the decadic logarithm of the partition coefficient of the neutral form, usually between octanol and water. Low readings indicate lower lipophilicity, high ones higher lipophilicity. For `CCCCCCN(C)C(=O)c1cccc(Oc2ccccc2)c1`, the logP worked out at 5.01.

Compound `CCCCCCOc1cccc(-c2cn(C)cc(-c3ccc(Cl)cc3)c2=O)c1` returned a logP of 5.23.

The next series can be described thus: method code SF, from PMID: 8453740.
`Cc1ccc(C)c(Oc2cccc(C(=O)NC(C)C)c2)c1` yielded a logP of 4.35.

`CN(C)C(=O)c1cccc(Oc2ccccc2)c1` registered a logP of 2.57.

Take `CCCCCCOc1cccc(-c2cn(C)cc(-c3ccccc3)c2=O)c1`: the log partition coefficient (logP) was determined as 4.59.

In the case of `Cc1ccc(C)c(Oc2cccc(C(=O)NC(C)(C)C)c2)c1`, the logP worked out at 4.78.

`CCCOc1cccc(-c2cn(C)cc(-c3ccccc3)c2=O)c1` yielded a lipophilicity (logP) of 2.98.

In the case of `CCCCN(C)C(=O)c1cccc(Oc2ccccc2)c1`, the logP turned out to be 3.89.

`CNC(=O)c1cccc(Oc2ccccc2)c1` had a log partition coefficient (logP) of 2.86.

With `CCN(C)C(=O)c1cccc(Oc2ccccc2)c1`, the logP amounted to 2.98.

For `CCCN(C)C(=O)c1cccc(Oc2ccccc2)c1`, the lipophilicity (logP) worked out at 3.44.

Take `CCCCCN(C)C(=O)c1cccc(Oc2ccccc2)c1`: the logP is 4.43.

With `COc1cccc(-c2cn(C)cc(-c3ccccc3)c2=O)c1`, the logP was determined as 1.94.

Regarding `CNC1=C(c2cccc(C(F)(F)F)c2)C(=O)C(c2ccccc2)O1` (stereo not drawn), the log partition coefficient (logP) was found to be 3.22.

`CNC(=O)c1cccc(Oc2cc(C)ccc2C)c1` registered a logP of 3.76.

Compound `CN(C)C=C1OC(=O)C(C#N)=C1c1ccccc1` showed a lipophilicity (logP) of 1.07.

In the case of `CCCCCOc1cccc(-c2cn(C)cc(-c3ccccc3)c2=O)c1`, the logP is 4.07.

Another series in a line: method code SF-W, from PMID: 8453740.
As for `CNc1cnn(-c2cccc(C(F)(F)F)c2)c(=O)c1Cl`, the logP came to 2.52.
